The values below come from US20230172831A1, “COSMETIC” (SHIN-ETSU CHEMICAL CO., LTD., priority 2020, published 2023).

Data set [1] can be described thus: Solubility test of ethylhexyl methoxycinnamate in silicones. Further details: key to dissolution state: “good” indicates dissolution; “poor” indicates separation. Conditions: for dissolution state: shaken 24 hours, observed after 12 days at room temperature. The format is physicochemical. The method, then: Ethylhexyl methoxycinnamate (sometimes referred to as OMC) and each silicone (sometimes referred to as Sx) weighed at a mass ratio shown in Table 1 were shaken and mixed at room temperature for 24 hours. After 12 days at room temperature, the dissolution state was observed. For each dissolution state, “good” indicates dissolution, and “poor” indicates separation.

Data set [2] is described as follows: Solubility of oily component solid at 25° C. and crystallization test (stearyl alcohol). Details: key to dissolution state: excellent: “Excellent” indicates uniform dissolution; “good” indicates dispersion; “poor” indicates separation. The class given is physicochemical. Conditions: for average penetration score: Stearyl alcohol:silicone 1:9, solidified at 25° C. for 2 days, 1/4 cone, after 5 seconds, average of five, larger value means softer; for dissolution state: Stearyl alcohol:silicone mass ratio 1:9, heated at 105° C. for 20 minutes, visual observation. How it is done:
(§1) Oily components being solid at 25° C. and silicones weighed at a mass ratio of 1:9 were heated at 105° C. for 20 minutes to observe the dissolution state. Then, each heated mixture solution was placed in an aluminum cup, allowed to stand at 25° C. for 2 days, and solidified. The penetration score of the solid was measured with a rheometer. The dissolution states according to the visual observation during the heating were shown as follows. “Excellent” indicates uniform dissolution, “good” indicates dispersion, and “poor” indicates separation.
(§2) Moreover, in the rheometer measurement, an automatic cone-penetration measurement test apparatus RPM-101 (manufactured by RIGOSHA CO., LTD.) was used, a ¼ cone was set, and a penetration score after 5 seconds was measured five times. […] A larger value means a softer material.

Data set [3] is described as follows: Solubility of oily component solid at 25° C. and crystallization test (polyethylene). The class given is physicochemical. Details: key to dissolution state: excellent: “Excellent” indicates uniform dissolution; “good” indicates dispersion; “poor” indicates separation. The conditions noted are these: for average penetration score: Polyethylene:silicone 1:9, solidified at 25° C. for 2 days, 1/4 cone, after 5 seconds, average of five, larger value means softer; for dissolution state: Polyethylene:silicone mass ratio 1:9, heated at 105° C. for 20 minutes, visual observation. The method, then: as §1, §2

Data set [4] is classed as physicochemical. How it is done: (§3) A 1-L four-necked flask was charged with 282.6 g of 1,1,1,3,5,7,7,7-octamethyltetrasiloxane and 1.4 mg of chloroplatinic acid. An ethylene gas was blown into the mixture under stirring, and a hydrosilylation reaction took place while the temperature was held at […]. The reaction was monitored by gas chromatography. When it was observed that the proportion of a target reached 95% or more, the reaction was terminated. Distillation under reduced pressure (120° C., 10 mmHg) was performed to obtain 3,5-diethyl-1,1,1,3,5,7,7,7-octamethyltetrasiloxane as the target. The boiling point was 227° C. and the viscosity was 2.2 mm^2/s.

The nature of data set [5]: Viscosity (kinematic viscosity, Ostwald viscometer). The class given is physicochemical. The method, then: Further, since the viscosity of the organosiloxane in the present invention is less than 5 mm^2/s (25° C.), favorable applicability and spreadability are sensed in the same manner as in cases of using decamethylcyclopentasiloxane having a viscosity of 4 mm^2/s (25° C.), or the like. Additionally, the feeling on use is favorable without provoking considerable sticky feeling. If the viscosity is 5 mm^2/s (25° C.) or higher, this causes poor spreading, sticky feeling is provoked, and the feeling on use is poor. Note that the viscosity (kinematic viscosity) values are measured using an Ostwald viscometer.
as §3

For data set [6] the following is noted: known value given for comparison; cited from earlier work.

Like-named read-outs stand apart in the source and are kept apart here.

Turning to undecamethylpentasiloxane [KF-96L-2cs], the values for the dissolution state result in data set [1] (Ratio of OMC:Sx 1:1 (mass)), in data set [2] and in data set [3] were “poor”, “excellent” and “Poor”, respectively. The average penetration score was found to be 34.6 in data set [2] and 18.6 in data set [3].

For `C[Si](C)(C)O[Si](C)(C)O[Si](C)(C)O[Si](C)(C)C` [KF-96L-1.5cs, decamethyltetrasiloxane], the dissolution state entry in data set [1] (Ratio of OMC:Sx 1:1 (mass)) is “poor”.

Broadly, the boiling point is the temperature at which the vapour pressure of the liquid equals the pressure above it. In the case of `CC[Si](C)(O[Si](C)(C)C)O[Si](C)(CC)O[Si](C)(C)C` (centres unmarked) [Sx of Production Example 1, 3,5-Diethyl-1,1,1,3,5,7,7,7-octamethyltetrasiloxane], the dissolution state result in data set [1] (Ratio of OMC:Sx 1:1 (mass)) is “good”; in data set [1] (Ratio of OMC:Sx 4:6 (mass)), “good”; in data set [2] it was “excellent”; in data set [3] it was “excellent”. Besides, the “Dissolution of ethylhexyl methoxycinnamate compared with other silicones” value in data set [1] (versus KF-96L-1cs, KF-96L-1.5cs, KF-96L-2cs, TMF-1.5, KF-995, D6) is “dissolved ethylhexyl methoxycinnamate to higher extent”. Also, the average penetration score in data set [2] came out at 49.5; in data set [3], 33.7. The molecule also had a boiling point in data set [4] of 227 °C. In data set [5], this molecule showed a viscosity of 2.2 mm^2/s.

As to `C[Si](C)(C)O[Si](C)(C)O[Si](C)(C)C` [KF-96L-1cs, octamethyltrisiloxane], the dissolution state entry is recorded as “poor” in data set [1] (Ratio of OMC:Sx 1:1 (mass)), “excellent” in data set [2] and “good” in data set [3]. The average penetration score in data set [2] was 31.7; in data set [3], 30.7.

`C[Si]1(C)O[Si](C)(C)O[Si](C)(C)O[Si](C)(C)O[Si](C)(C)O[Si](C)(C)O1` [Example D6, dodecamethylhexasiloxane]: the average penetration score in data set [2] was found to be 31.5; in data set [3], 21.0. For the same molecule, in data set [6], the boiling point was 245 °C.

As for `C[Si]1(C)O[Si](C)(C)O[Si](C)(C)O[Si](C)(C)O[Si](C)(C)O1` [D5:KF-995, decamethylpentasiloxane], the average penetration score amounted to 34.4 in data set [2] and 22.4 in data set [3]. Moreover, in data set [6], the boiling point is 210 °C.
